Measured values from ChEMBL document CHEMBL5465560, “Selectivity Literature for EUbOPEN Chemogenomic Library” (2024).

What was measured:
[1] = biological target: L-type calcium channel Cav1.2 (CACNA1C) (Homo sapiens, UniProt Q13936); test: Selectivity interaction (Eurofins CEREP Diversity Profile (receptors and ion channels)) EUB0000279b CACNA1C; details: at 10 µM, read-out: % of control
[2] = biological target: SRSF protein kinase 1 (Homo sapiens, UniProt Q96SB4); details: at 10 µM
[3] = biological target: Ephrin type-A receptor 7 (Homo sapiens) (UniProt Q15375); test: Selectivity interaction (ActivX KiNativ screen (kinase selectivity in THP-1 cell lysates)) EUB0000639a EPHA7; assay type: subcellular; details: lysate
[4] = biological target: Homeodomain-interacting protein kinase 2 (Homo sapiens, UniProt Q9H2X6); test: Selectivity interaction (Kinase panel (Invitrogen)) EUB0000639a HIPK2; details: at 200 nM
[5] = biological target: Serine/threonine-protein kinase MARK2 (Homo sapiens) (UniProt Q7KZI7); test: Selectivity interaction (ActivX KiNativ screen (kinase selectivity in THP-1 cell lysates)) EUB0000639a MARK2; assay type: subcellular; details: lysate, at 1 µM
[6] = biological target: Phosphorylase b kinase gamma catalytic chain, skeletal muscle/heart isoform (Homo sapiens) (UniProt Q16816); test: Selectivity interaction (Kinase panel (Invitrogen)) EUB0000639a PHKG1; details: at 200 nM
[7] = biological target: Tyrosine-protein kinase receptor UFO (Homo sapiens) (UniProt P30530); test: Selectivity interaction (KinomeScan (DiscoverX)) EUB0000092b AXL; details: at 10 µM
[8] = biological target: Myosin light chain kinase, smooth muscle (Homo sapiens, UniProt Q15746); test: Selectivity interaction (KinomeScan (DiscoverX)) EUB0000092b MYLK; details: at 10 µM
[9] = biological target: RAC-gamma serine/threonine-protein kinase (Homo sapiens, UniProt Q9Y243); test: Selectivity interaction (KinomeScan (DiscoverX)) EUB0000045b AKT3
[10] = biological target: T1, Inhibitor of nuclear factor kappa-B kinase subunit epsilon (Homo sapiens) (UniProt Q14164); test: Selectivity interaction (KinomeScan (DiscoverX)) EUB0000045b IKBKE
T1 sequence (whole entry): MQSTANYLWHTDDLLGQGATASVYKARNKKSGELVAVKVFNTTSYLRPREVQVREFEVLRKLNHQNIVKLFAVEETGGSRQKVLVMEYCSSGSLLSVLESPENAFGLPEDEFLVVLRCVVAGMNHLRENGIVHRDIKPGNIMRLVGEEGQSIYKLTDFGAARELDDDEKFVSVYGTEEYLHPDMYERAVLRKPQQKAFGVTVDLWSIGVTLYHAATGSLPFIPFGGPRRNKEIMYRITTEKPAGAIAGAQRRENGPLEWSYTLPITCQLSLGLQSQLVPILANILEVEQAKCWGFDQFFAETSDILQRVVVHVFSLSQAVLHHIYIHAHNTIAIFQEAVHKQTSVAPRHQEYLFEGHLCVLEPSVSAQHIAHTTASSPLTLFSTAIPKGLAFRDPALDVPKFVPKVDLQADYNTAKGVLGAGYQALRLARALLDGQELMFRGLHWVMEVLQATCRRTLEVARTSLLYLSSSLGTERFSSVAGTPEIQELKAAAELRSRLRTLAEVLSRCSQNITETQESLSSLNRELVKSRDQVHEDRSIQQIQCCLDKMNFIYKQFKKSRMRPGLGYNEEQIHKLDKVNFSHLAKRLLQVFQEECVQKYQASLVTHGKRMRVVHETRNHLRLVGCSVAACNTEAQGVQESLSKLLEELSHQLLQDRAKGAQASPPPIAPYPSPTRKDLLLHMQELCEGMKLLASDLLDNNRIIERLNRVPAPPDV

[11] = biological target: T2, MAP/microtubule affinity-regulating kinase 4 (Homo sapiens) (UniProt Q96L34); test: Selectivity interaction (KinomeScan (DiscoverX)) EUB0000618a MARK4; details: at 10 µM
T2 sequence (whole entry): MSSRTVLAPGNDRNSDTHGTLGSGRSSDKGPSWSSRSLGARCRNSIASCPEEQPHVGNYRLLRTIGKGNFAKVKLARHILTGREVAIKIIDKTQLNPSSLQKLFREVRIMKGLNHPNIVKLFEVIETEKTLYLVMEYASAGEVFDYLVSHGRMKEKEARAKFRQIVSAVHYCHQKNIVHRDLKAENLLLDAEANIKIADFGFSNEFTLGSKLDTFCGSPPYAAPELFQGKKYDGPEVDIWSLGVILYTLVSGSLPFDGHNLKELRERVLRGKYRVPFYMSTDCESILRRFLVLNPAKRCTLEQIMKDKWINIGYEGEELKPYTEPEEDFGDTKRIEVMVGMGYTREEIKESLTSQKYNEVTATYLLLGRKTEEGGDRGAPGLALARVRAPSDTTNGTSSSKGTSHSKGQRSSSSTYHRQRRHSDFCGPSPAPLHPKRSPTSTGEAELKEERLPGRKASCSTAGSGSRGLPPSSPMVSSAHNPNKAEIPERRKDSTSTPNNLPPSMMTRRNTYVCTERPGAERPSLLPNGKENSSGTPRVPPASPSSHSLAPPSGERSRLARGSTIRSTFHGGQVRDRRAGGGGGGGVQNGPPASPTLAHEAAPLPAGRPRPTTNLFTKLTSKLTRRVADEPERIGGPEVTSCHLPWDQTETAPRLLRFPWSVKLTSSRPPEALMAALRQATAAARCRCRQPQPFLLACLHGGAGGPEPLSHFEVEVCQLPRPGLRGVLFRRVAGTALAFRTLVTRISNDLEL

[12] = biological target: T3, Dual specificity mitogen-activated protein kinase kinase 6 (Homo sapiens) (UniProt P52564); test: Selectivity interaction (KinomeScan (DiscoverX)) EUB0000618a MAP2K6; details: at 10 µM
T3 sequence (whole entry): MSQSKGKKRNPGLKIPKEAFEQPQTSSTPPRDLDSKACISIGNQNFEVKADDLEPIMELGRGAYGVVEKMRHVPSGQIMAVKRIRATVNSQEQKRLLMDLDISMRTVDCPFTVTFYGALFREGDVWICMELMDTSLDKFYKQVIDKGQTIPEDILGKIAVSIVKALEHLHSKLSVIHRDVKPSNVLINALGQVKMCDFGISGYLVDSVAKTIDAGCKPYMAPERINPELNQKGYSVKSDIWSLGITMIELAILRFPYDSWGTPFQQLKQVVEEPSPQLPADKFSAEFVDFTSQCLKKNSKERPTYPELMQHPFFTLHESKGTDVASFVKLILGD

[13] = biological target: Myosin light chain kinase 2, skeletal/cardiac muscle (Homo sapiens) (UniProt Q9H1R3); test: Selectivity interaction (KinomeScan (DiscoverX)) EUB0000618a MYLK2; details: at 10 µM
[14] = biological target: Microtubule-associated serine/threonine-protein kinase 1 (Homo sapiens) (UniProt Q9Y2H9); test: Selectivity interaction (KinomeScan (DiscoverX)) EUB0000655a MAST1; details: at 10 µM
[15] = biological target: STE20-like serine/threonine-protein kinase (Homo sapiens, UniProt Q9H2G2); test: Selectivity interaction (LanthaScreen Eu Kinase Binding Assay) EUB0001632a SLK; details: at 10 µM

Ephrin type-A receptor 7 (Homo sapiens), sequence (Q15375 28-998 limits assumed): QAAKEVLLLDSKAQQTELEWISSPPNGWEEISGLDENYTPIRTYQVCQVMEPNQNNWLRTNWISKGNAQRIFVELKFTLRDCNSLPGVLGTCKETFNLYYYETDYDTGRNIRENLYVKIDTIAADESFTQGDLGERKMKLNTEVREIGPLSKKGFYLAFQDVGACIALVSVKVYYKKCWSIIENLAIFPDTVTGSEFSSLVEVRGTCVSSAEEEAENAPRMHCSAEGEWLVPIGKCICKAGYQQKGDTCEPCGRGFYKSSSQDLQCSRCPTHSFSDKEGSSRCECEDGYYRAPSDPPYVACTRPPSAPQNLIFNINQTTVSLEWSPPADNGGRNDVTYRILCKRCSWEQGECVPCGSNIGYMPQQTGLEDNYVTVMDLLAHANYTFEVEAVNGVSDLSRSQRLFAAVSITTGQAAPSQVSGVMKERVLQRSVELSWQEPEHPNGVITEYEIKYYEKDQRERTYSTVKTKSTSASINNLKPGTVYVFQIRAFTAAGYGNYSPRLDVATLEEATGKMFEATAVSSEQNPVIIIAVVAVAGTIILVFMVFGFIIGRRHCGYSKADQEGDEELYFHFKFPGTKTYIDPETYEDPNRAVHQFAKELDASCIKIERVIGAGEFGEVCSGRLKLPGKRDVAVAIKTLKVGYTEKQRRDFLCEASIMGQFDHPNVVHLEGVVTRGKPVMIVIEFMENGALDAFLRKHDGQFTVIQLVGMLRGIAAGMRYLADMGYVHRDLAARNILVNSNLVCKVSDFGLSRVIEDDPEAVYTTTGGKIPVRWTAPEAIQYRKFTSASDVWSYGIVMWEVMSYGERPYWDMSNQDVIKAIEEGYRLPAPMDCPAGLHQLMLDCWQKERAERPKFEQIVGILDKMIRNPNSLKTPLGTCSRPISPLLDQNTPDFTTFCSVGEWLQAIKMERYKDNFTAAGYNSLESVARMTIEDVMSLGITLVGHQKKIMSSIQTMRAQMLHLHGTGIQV
RAC-gamma serine/threonine-protein kinase, sequence (Q9Y243 whole entry): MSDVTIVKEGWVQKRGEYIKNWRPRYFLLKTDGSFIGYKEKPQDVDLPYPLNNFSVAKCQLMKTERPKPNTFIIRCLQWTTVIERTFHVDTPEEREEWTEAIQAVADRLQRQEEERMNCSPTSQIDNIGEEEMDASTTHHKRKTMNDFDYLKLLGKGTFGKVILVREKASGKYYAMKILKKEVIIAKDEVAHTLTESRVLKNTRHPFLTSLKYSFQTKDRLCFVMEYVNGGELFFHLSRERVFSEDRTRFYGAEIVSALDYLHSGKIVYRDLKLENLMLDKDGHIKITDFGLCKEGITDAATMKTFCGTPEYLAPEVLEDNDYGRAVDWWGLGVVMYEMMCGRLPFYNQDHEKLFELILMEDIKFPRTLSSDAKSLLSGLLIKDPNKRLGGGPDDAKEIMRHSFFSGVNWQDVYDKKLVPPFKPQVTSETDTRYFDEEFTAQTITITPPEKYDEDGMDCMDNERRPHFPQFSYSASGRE
Myosin light chain kinase 2, skeletal/cardiac muscle (Homo sapiens), sequence (Q9H1R3 whole entry): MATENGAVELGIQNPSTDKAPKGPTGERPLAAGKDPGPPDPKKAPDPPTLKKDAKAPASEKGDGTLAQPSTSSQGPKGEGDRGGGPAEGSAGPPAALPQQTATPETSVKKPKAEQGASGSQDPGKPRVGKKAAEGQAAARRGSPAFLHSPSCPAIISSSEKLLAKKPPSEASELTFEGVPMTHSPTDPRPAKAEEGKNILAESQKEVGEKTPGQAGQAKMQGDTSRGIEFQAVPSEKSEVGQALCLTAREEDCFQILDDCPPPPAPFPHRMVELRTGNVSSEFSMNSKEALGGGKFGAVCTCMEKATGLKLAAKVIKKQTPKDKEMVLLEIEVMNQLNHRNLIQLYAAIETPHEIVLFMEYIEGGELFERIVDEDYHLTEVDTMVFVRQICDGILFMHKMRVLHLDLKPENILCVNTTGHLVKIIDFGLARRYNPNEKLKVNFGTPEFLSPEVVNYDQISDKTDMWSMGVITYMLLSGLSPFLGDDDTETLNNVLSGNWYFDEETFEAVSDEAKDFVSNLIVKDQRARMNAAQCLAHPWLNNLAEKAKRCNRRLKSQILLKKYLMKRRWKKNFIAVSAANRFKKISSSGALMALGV
Myosin light chain kinase, smooth muscle, sequence (Q15746 whole entry): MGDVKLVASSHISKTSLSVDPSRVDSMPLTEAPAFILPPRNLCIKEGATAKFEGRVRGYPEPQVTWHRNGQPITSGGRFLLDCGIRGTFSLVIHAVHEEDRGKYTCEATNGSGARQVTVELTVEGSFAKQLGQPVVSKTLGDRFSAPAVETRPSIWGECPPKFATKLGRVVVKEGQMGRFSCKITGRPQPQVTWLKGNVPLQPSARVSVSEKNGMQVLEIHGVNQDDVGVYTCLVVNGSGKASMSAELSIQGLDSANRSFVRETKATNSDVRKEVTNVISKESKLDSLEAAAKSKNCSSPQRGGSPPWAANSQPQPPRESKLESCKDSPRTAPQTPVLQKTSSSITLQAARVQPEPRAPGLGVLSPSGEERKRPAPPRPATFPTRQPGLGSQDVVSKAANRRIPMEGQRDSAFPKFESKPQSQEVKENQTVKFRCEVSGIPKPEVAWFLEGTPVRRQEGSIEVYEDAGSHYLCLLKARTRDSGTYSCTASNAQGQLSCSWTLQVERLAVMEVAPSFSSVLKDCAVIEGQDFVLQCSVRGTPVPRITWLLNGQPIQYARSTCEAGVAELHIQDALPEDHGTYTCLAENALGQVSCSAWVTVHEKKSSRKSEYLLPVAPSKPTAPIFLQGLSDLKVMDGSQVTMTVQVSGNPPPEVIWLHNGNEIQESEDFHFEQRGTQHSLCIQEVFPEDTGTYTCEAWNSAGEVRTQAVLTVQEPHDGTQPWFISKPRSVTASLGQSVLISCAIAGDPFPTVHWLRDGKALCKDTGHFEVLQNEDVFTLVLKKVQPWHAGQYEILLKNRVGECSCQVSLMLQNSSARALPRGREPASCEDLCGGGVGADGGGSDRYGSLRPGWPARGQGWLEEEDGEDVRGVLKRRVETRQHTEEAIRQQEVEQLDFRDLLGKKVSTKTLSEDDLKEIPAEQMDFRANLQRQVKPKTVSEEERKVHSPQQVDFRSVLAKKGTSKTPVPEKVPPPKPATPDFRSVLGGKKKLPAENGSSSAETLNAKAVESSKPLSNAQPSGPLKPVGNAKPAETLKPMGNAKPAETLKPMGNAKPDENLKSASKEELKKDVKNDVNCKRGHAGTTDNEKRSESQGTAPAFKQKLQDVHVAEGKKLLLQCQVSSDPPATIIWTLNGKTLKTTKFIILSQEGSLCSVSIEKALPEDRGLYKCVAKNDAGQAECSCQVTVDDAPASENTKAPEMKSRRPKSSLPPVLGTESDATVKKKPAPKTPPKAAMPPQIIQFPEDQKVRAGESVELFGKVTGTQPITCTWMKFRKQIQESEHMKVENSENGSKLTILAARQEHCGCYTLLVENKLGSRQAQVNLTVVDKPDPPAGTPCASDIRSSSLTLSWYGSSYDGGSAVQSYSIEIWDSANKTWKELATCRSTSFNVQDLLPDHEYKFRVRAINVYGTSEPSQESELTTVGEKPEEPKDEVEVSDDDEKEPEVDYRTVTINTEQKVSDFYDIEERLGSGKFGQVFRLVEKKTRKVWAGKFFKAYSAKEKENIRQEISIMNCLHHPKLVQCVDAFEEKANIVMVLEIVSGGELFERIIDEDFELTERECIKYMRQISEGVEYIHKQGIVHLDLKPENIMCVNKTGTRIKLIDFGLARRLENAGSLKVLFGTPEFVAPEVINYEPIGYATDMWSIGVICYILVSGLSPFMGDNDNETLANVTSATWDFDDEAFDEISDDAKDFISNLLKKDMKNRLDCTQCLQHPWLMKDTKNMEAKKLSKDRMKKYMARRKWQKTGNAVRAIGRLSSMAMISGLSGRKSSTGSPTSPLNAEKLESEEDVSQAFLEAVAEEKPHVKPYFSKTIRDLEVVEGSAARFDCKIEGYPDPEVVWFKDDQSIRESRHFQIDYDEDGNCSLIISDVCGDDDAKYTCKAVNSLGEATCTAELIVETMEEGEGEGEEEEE
Phosphorylase b kinase gamma catalytic chain, skeletal muscle/heart isoform (Homo sapiens), sequence (Q16816 whole entry, looked up, canonical isoform): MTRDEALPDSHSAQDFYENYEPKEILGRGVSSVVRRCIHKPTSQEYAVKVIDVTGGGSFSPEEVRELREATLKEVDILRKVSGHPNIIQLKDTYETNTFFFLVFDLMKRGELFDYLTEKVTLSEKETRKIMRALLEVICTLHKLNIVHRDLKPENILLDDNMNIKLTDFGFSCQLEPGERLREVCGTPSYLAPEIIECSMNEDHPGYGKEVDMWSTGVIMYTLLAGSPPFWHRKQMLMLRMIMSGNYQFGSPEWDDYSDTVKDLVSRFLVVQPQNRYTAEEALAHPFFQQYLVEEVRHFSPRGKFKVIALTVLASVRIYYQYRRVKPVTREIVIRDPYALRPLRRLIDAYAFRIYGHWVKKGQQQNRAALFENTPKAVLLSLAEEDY
SRSF protein kinase 1, sequence (Q96SB4 whole entry): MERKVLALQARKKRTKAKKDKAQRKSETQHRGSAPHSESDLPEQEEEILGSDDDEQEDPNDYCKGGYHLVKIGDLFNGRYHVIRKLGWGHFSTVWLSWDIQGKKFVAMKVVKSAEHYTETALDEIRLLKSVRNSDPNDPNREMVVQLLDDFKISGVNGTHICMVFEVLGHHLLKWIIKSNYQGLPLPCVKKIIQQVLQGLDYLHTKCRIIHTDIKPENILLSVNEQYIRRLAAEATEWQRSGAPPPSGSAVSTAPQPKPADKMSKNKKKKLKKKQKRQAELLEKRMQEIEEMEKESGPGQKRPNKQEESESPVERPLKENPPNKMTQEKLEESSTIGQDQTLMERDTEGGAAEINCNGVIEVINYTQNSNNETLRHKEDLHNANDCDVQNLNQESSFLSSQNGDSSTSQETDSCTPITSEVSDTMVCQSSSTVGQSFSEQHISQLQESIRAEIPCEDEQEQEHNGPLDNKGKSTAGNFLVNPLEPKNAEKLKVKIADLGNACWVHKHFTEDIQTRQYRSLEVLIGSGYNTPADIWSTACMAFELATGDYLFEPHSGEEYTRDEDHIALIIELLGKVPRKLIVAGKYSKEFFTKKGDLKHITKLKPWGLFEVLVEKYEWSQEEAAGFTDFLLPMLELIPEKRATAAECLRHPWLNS

CC(=O)c1cc(-c2ccccc2OCC2CC2)c2ncccn12
activity [1]: 21%

CCN(CC)CCCCNc1ncc2cc(-c3cc(OC)cc(OC)c3)c(NC(=O)NC(C)(C)C)nc2n1
% of control [2]: 100%

CC[C@@H]1[C@H](F)C(=O)N[C@@H]1COc1nccc2cc(C(N)=O)c(OC)cc12 [ZIMLOVISERTIB]
% of inhibition ([3]; at 0.01 µM): -8.6% | % of inhibition ([3]; at 0.04 µM): 21.7% | % of inhibition ([3]; at 0.2 µM): 20.8% | % of inhibition ([3]; at 1 µM): -6.5% | % of inhibition ([3]; at 5 µM): 20.6% | % of inhibition [4]: 4.6% | % of inhibition [5]: 26.6% | % of inhibition [6]: 16.7%

CCC(=O)N1CCN(c2ccc(-n3c(=O)ccc4cnc5ccc(-c6cnc7ccccc7c6)cc5c43)cc2C(F)(F)F)CC1
% of control [7]: 46% | % of control [8]: 94%

C=CC(=O)Nc1cc(-n2c(=O)ccc3cnc4ccc(-c5ccc(NS(C)(=O)=O)cc5)cc4c32)ccc1C
% of control ([9]; at 1 µM): 75% | % of control ([9]; at 10 µM): 100% | % of control ([10]; at 1 µM): 100% | % of control ([10]; at 10 µM): 100%

O[C@H]1CC[C@H](Nc2ncc3nc(Nc4c(F)cc(F)cc4F)n([C@H]4CCOC4)c3n2)CC1
% of control [11]: 100% | % of control [12]: 88% | % of control [13]: 100%

CN(C)CCOc1ccc(-c2nc(-c3ccncc3)c(-c3ccc4c(c3)CC/C4=N\O)[nH]2)cc1
% of control [14]: 100%

Cn1cc(-n2cnc3c(NCc4nc5cc(Cl)c(Cl)cc5[nH]4)nc(N4CCOCC4)nc32)cn1
% of inhibition [15]: -1.88%
